In general, Ki refers to a dissociation constant, usually derived from enzyme kinetics or from competition with a known ligand. A low value points to tighter binding.

Results on 5 compounds are retold here after ChEMBL document CHEMBL2380262, “Pyrrolidine analogs of GZ-793A: synthesis and evaluation as inhibitors of the vesicular monoamine transporter-2 (VMAT2)” (Bioorg Med Chem Lett, 2013).

The target in assay [1] is T1, Synaptic vesicular amine transporter (Rattus norvegicus, UniProt Q01827). Briefly: Displacement of [3H]DTBZ from VMAT2 in Sprague-Dawley rat synaptic vesicle membranes after 30 mins by scintillation counting analysis. It is filed as cell membranes, Membrane. On the technique in general: In a radioligand displacement assay an active substance lowers the binding of a labelled ligand.
T1 sequence (Q01827 whole entry): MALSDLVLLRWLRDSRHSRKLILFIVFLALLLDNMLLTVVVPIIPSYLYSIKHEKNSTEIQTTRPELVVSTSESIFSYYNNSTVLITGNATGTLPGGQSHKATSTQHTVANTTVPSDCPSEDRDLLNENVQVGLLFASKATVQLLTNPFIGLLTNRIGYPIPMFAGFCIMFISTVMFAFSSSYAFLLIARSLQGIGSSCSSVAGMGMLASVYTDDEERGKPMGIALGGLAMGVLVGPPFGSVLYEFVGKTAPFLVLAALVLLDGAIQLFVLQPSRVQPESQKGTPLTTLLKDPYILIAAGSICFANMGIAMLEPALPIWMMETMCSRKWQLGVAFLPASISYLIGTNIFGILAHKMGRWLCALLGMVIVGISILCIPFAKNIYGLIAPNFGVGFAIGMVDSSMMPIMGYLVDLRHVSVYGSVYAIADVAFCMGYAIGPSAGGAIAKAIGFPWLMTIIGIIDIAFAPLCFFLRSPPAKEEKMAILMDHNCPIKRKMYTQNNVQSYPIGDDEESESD

For assay [2], the target named is T1, Synaptic vesicular amine transporter. In words: Inhibition of VMAT2-mediated [3H]DA uptake in rat striatal synaptic vesicles by liquid scintillation spectroscopic analysis.

Consider `OC[C@H](O)CN1[C@H](CCc2ccc3c(c2)OCO3)CC[C@@H]1CCc1ccc2c(c1)OCO2`, for which the inhibition constant Ki is 8470 nM in assay [1] and 269 nM in assay [2].
For `COc1ccc(CC[C@@H]2CC[C@H](CCc3ccc(OC)cc3)N2C[C@@H](O)CO)cc1`, in that order: 3940 nM and 49 nM.
For `COc1ccc(CC[C@@H]2CC[C@H](CCc3ccc(OC)c(OC)c3)N2C[C@@H](O)CO)cc1OC`, in that order: more than 100000 nM and 3780 nM.
On to `COc1ccccc1CC[C@@H]1CC[C@H](CCc2ccccc2OC)N1C[C@@H](O)CO`, for which the Ki in assay [1] was found to be 2350 nM; in assay [2] it was 270 nM.
For `OC[C@H](O)CN1[C@H](CCc2ccccc2)CC[C@@H]1CCc1ccccc1`, in that order: 5910 nM and 279 nM.
